Tests used:
[1] = excess molar enthalpy (molar enthalpy of mixing); xn = mol fraction of the nth substance listed; conditions: 101 kPa, Liquid, Calvet calorimetry
[2] = xn = mol fraction of the nth substance listed; conditions: 101 kPa, Liquid, Vibrating tube method

CCCOC(C)=O [propyl ethanoate] + CCCCCCCCCC
Conditions	excess molar enthalpy [kcal/mol]	mass density [kg/m3]
[1], 291.15 K, x1 = 0.0703	0.0935	–
[1], 291.15 K, x1 = 0.1623	0.18	–
[1], 291.15 K, x1 = 0.2528	0.2536	–
[1], 291.15 K, x1 = 0.3401	0.305	–
[1], 291.15 K, x1 = 0.4179	0.3344	–
[1], 291.15 K, x1 = 0.4892	0.3482	–
[1], 291.15 K, x1 = 0.5501	0.3489	–
[1], 291.15 K, x1 = 0.6049	0.3413	–
[1], 291.15 K, x1 = 0.615	0.3377	–
[1], 291.15 K, x1 = 0.6649	0.3196	–
[1], 291.15 K, x1 = 0.7166	0.2935	–
[1], 291.15 K, x1 = 0.7751	0.2524	–
[1], 291.15 K, x1 = 0.8324	0.202	–
[1], 291.15 K, x1 = 0.8924	0.14	–
[1], 291.15 K, x1 = 0.9524	0.0739	–
[1], 298.15 K, x1 = 0.1028	0.127	–
[1], 298.15 K, x1 = 0.2102	0.212	–
[1], 298.15 K, x1 = 0.3062	0.2768	–
[1], 298.15 K, x1 = 0.3924	0.3148	–
[1], 298.15 K, x1 = 0.4676	0.3332	–
[1], 298.15 K, x1 = 0.5348	0.3384	–
[1], 298.15 K, x1 = 0.5925	0.3334	–
[1], 298.15 K, x1 = 0.6163	0.3258	–
[1], 298.15 K, x1 = 0.6615	0.3119	–
[1], 298.15 K, x1 = 0.71	0.2856	–
[1], 298.15 K, x1 = 0.7601	0.2572	–
[1], 298.15 K, x1 = 0.8123	0.215	–
[1], 298.15 K, x1 = 0.8626	0.169	–
[1], 298.15 K, x1 = 0.9119	0.118	–
[1], 298.15 K, x1 = 0.9581	0.0619	–
[1], 318.15 K, x1 = 0.1083	0.133	–
[1], 318.15 K, x1 = 0.2064	0.2204	–
[1], 318.15 K, x1 = 0.3068	0.2894	–
[1], 318.15 K, x1 = 0.3885	0.326	–
[1], 318.15 K, x1 = 0.4625	0.3456	–
[1], 318.15 K, x1 = 0.5203	0.3475	–
[1], 318.15 K, x1 = 0.571	0.3423	–
[1], 318.15 K, x1 = 0.6098	0.3325	–
[1], 318.15 K, x1 = 0.6588	0.3176	–
[1], 318.15 K, x1 = 0.7129	0.2928	–
[1], 318.15 K, x1 = 0.7682	0.2588	–
[1], 318.15 K, x1 = 0.8288	0.212	–
[1], 318.15 K, x1 = 0.8862	0.153	–
[1], 318.15 K, x1 = 0.948	0.0829	–
[2], 291.15 K, x1 = 0.0491	–	735.2
[2], 291.15 K, x1 = 0.1081	–	740.2
[2], 291.15 K, x1 = 0.2054	–	749.4
[2], 291.15 K, x1 = 0.2933	–	758.8
[2], 291.15 K, x1 = 0.372	–	768
[2], 291.15 K, x1 = 0.4514	–	778.3
[2], 291.15 K, x1 = 0.5221	–	788.4
[2], 291.15 K, x1 = 0.5892	–	798.8
[2], 291.15 K, x1 = 0.6468	–	808.4
[2], 291.15 K, x1 = 0.7079	–	819.6
[2], 291.15 K, x1 = 0.7955	–	837.5
[2], 291.15 K, x1 = 0.8151	–	841.8
[2], 291.15 K, x1 = 0.8554	–	851.2
[2], 291.15 K, x1 = 0.8932	–	860.5
[2], 291.15 K, x1 = 0.9454	–	874.3
[2], 291.15 K, x1 = 0.9719	–	881.5
[2], 291.15 K, x1 = 1	–	889.6
[2], 298.15 K, x1 = 0.0402	–	729.1
[2], 298.15 K, x1 = 0.1191	–	735.7
[2], 298.15 K, x1 = 0.2077	–	744
[2], 298.15 K, x1 = 0.2921	–	752.8
[2], 298.15 K, x1 = 0.3727	–	762.1
[2], 298.15 K, x1 = 0.4509	–	772
[2], 298.15 K, x1 = 0.5172	–	781.2
[2], 298.15 K, x1 = 0.5788	–	790.5
[2], 298.15 K, x1 = 0.6343	–	799.5
[2], 298.15 K, x1 = 0.6912	–	809.6
[2], 298.15 K, x1 = 0.7504	–	820.9
[2], 298.15 K, x1 = 0.7988	–	830.9
[2], 298.15 K, x1 = 0.8462	–	841.5
[2], 298.15 K, x1 = 0.8882	–	851.7
[2], 298.15 K, x1 = 0.9267	–	861.6
[2], 298.15 K, x1 = 0.9583	–	870.2
[2], 298.15 K, x1 = 1	–	882.5
[2], 318.15 K, x1 = 0.064	–	715.5
[2], 318.15 K, x1 = 0.1164	–	719.7
[2], 318.15 K, x1 = 0.1961	–	726.8
[2], 318.15 K, x1 = 0.2794	–	734.8
[2], 318.15 K, x1 = 0.3548	–	742.9
[2], 318.15 K, x1 = 0.4333	–	752.2
[2], 318.15 K, x1 = 0.4936	–	760
[2], 318.15 K, x1 = 0.5563	–	768.6
[2], 318.15 K, x1 = 0.6213	–	778.5
[2], 318.15 K, x1 = 0.6781	–	788
[2], 318.15 K, x1 = 0.7226	–	795.8
[2], 318.15 K, x1 = 0.7733	–	805.5
[2], 318.15 K, x1 = 0.8247	–	816.1
[2], 318.15 K, x1 = 0.867	–	825.5
[2], 318.15 K, x1 = 0.9092	–	835.5
[2], 318.15 K, x1 = 0.9463	–	844.9
[2], 318.15 K, x1 = 1	–	859.8
[2], 328.15 K, x1 = 0.0485	–	706.6
[2], 328.15 K, x1 = 0.1075	–	711.1
[2], 328.15 K, x1 = 0.196	–	718.6
[2], 328.15 K, x1 = 0.2952	–	728
[2], 328.15 K, x1 = 0.3758	–	736.6
[2], 328.15 K, x1 = 0.4553	–	746
[2], 328.15 K, x1 = 0.5227	–	754.7
[2], 328.15 K, x1 = 0.5818	–	763
[2], 328.15 K, x1 = 0.6506	–	773.6
[2], 328.15 K, x1 = 0.7058	–	782.9
[2], 328.15 K, x1 = 0.7598	–	792.6
[2], 328.15 K, x1 = 0.8204	–	804.6
[2], 328.15 K, x1 = 0.8511	–	811.2
[2], 328.15 K, x1 = 0.8851	–	818.8
[2], 328.15 K, x1 = 0.9321	–	830.2
[2], 328.15 K, x1 = 0.958	–	836.9
[2], 328.15 K, x1 = 1	–	848.3

Reference: the NIST ThermoML archive (doi:10.1021/je3011979)
